Results from US7368582B2, “Amidomethyl-substituted 2-(4-sulfonylamino)-3-hydroxy-3,4-dihydro-2H-chromen-6-yl compounds, a process and intermediates for their production, and pharmaceutical compositions containing them” (Solvay Pharmaceuticals GmbH, priority 2003, dated 2008).

How the values were obtained:
[1] = tested on: left atrium of rats' hearts; test: Functional refractory period prolongation on isolated left atria of rats' hearts in vitro; set-up: species or system rat (Sprague-Dawley); conditions: 10 μM
Description: 3. Investigation of the Functional Effectiveness of the Substances on the Atrium of Rats' Hearts in Vitro
In this test model it is determined to what extent the Kv 1.5-blocking substances of Formula I result in a prolongation of the functional refractory period in the left atrium of rats. The refractory period is the minimum possible elapsed time between the basic stimulus and additional stimulus in which a renewed contraction can be triggered. The extent of the prolongation of the functional refractory period is a measurement of the antiarrhythmic effectiveness of the substances according to the invention. The functional refractory period is determined by testing on the electrically stimulated preparation at what elapsed time from the preceding contraction a renewed contraction can be triggered by additional electrical stimuli.
The hearts were removed from freshly sacrificed rats (Sprague-Dawley, Charles-River, Germany). The left atria were isolated and fastened to force transducers in a temperature-controlled (30° C.), gasified (O2 95%, CO2 5%) organ bath which was filled with modified Tyrode solution (all values in mM: NaCl 137; KCl 2.7; CaCl2 1.8; MgCl2 0.8; NaHCO3 11.9; NaH2PO4 0.6; glucose 5). In order to trigger regular contractions, the preparations were electrically stimulated (rectangular pulses, pulse magnitude 3.5× threshold stimulus, pulse width 1.5 ms, frequency 1 Hz). Initially, the initial value of the functional refractory period was determined by applying extra pulses in addition to the basic stimulus, the elapsed time from the preceding basic stimulus being shortened until no further additional contraction could be triggered. Then the cumulative addition of increasing concentrations (0.1-10 μM) of the substances of Formula I took place at intervals of 20 min. each, the refractory period being determined again in each case 18 min. after the addition had taken place. Before the measurement, stock solutions of the test substances (3.2 and 0.32 mM in 100% DMSO) were prepared. In order to achieve the desired final concentrations of the substances (0.1-10 μM) in the organ bath (volume 100 ml), corresponding volumes of these stock solutions were then poured into the organ bath.
In each case the prolongation of the functional refractory period (FRP) in the left atrium of the rats' hearts in milliseconds observed after the addition of 10 μM of the respective substance of Formula I to the atrial preparations was given as characteristic variable.

ventricle of guinea pigs = test: Functional effectiveness on guinea-pig hearts in vivo (ERP, QT, QRS, systolic blood pressure); set-up: species or system guinea pig (Dunkin-Hartley); conditions: 1 min. after 10 μmole/kg i.v.; for QRS / QT / syst. blood pressure (change): guinea pigs; for syst. blood pressure (change): minus effects due to the vehicle, negative values indicate reduction; for ERP: ventricle of guinea pigs, negative values indicate shortening
Text: 4. Investigation of the Functional Effectiveness of the Substances on Guinea-Pig Hearts in Vivo
In the test model shown below, it was shown that the substances according to the invention at most have slight undesirable proarrhythmic effects on repolarization in the ventricle. To this end, the influence of the compounds of Formula I on the effective refractory period (ERP) and other influencing variables on guinea-pig hearts in vivo were investigated. In this test model, non-selective potassium channel blockers not in accordance with the invention, which also block HERG and/or KvLQT1 channels, result in undesirable prolongation of the ERP and the QT time on an electrocardiogram (═ECG). The QT time is likewise a measurement of the repolarization in the heart. Prolongations of both the ERP and the QT time, respectively, which are due to the substances were independently interpreted as indications of the risk of the occurrence of undesirable torsade-de-pointes arrhythmias. Furthermore, the QRS interval also was determined in each case from the ECG as a measurement of the ventricular rate of spread of stimulus. Even a prolongation of the QRS interval caused by a test substance is connected with an increased risk of undesirable pro-arrhythmic side-effects. Therefore in this test model the lack of an ERP and QT time prolongation signifies a low risk, but the occurrence of a relevant ERP and QT prolongation on the other hand signifies an elevated risk of undesirable pro-arrhythmic effects. Also the lack of a prolongation of the QRS interval which is due to the substances due to the substances of Formula I investigated indicates a low risk of undesirable pro-arrhythmic side-effects, since lack of QRS prolongation indicates an undisturbed spread of stimulus in the ventricle. Conversely, a QRS prolongation, which is typically triggered by Class I antiarrhythmic drugs indicates slowing of the conduction rate and may promote the occurrence of ventricular tachycardias to ventricular fibrillation.
Male guinea pigs (Dunkin-Hartley from Charles River) were anaesthetized (ketamine 50 mg/kg, xylazine 10 mg/kg) and each of them was provided with a venous access via one jugular vein for administration of compounds of Formula I or a vehicle. A bipolar stimulation catheter was fed into the right ventricle of the guinea pigs via the other jugular vein (stimulation frequency 5 Hz). The arterial blood pressure was measured by a catheter located in the carotid artery which was connected to a Statham pressure transducer. The ECG was recorded via needle electrodes. The measured data were digitized via an analog/digital converter, recorded on a computer with suitable software (Ponemah Physiology Platform from Gould, USA) and printed out in parallel on a multichannel printer. After an equilibration period of 45 min., increasing doses of the compounds of Formula I or of the vehicle were administered intravenously (=i.v.) to the guinea pigs at 12-minute intervals. Before the first administration and in each case one minute after administration of increasing doses (0.1−max. 30 μmole/kg) of the substances of Formula I, the effective refractory period was measured. For this, after five normal stimuli in each case an additional pulse was applied and the elapsed time thereof from the preceding pulse was increased until a heart action was triggered. The observed time interval corresponds to the ERP of the ventricular myocardium.
In order to detect possible effects of the test substances on the blood pressure, in the same test model after each administration of substance the systolic and diastolic blood pressure was determined and compared with the previous blood-pressure level. The parameters were recorded automatically 1 and 8 min. after each administration of substance.
Only statistically significant effects were listed, with a t-test with a significance limit of P<0.05 being used for the statistical testing.

With `CCc1ccc(S(=O)(=O)N[C@@H]2c3cc(CC(=O)N[C@H]4CCCc5ccccc54)ccc3OC(C)(C)[C@H]2O)cc1` [Example 9] the FRP prolongation [1] was 30 ms.

`CCc1ccc(S(=O)(=O)NC2c3cc(CC(=O)N4CCN(c5ccccc5)CC4)ccc3OC(C)(C)C2O)cc1` (stereo not drawn) [Example 16] was tested, and the FRP prolongation [1] was 20 ms, the QRS (ventricle of guinea pigs) was “n.s” and the QT (ventricle of guinea pigs) was “n.s”. For the same compound, the “syst. blood pressure (change)” value (ventricle of guinea pigs) was −8.6 mm Hg and the ERP (ventricle of guinea pigs) was -7.5 ms.

For `CCc1ccc(S(=O)(=O)N(CC(C)(C)C)[C@H]2c3cc(CC(=O)NCc4ccccc4)ccc3OC(C)(C)[C@@H]2O)cc1` [Example 8], the FRP prolongation [1] was 17 ms, the QRS (ventricle of guinea pigs) was “n.s” and the QT (ventricle of guinea pigs) was “n.s”. For the same compound, the “syst. blood pressure (change)” value (ventricle of guinea pigs) was −10.7 mm Hg and the ERP (ventricle of guinea pigs) was “n.s”.

With `CCc1ccc(S(=O)(=O)N(CC(C)(C)C)[C@@H]2c3cc(CC(=O)NCc4ccccc4)ccc3OC(C)(C)[C@H]2O)cc1` [Example 7] the FRP prolongation [1] was 24 ms, the QRS (ventricle of guinea pigs) was “n.s” and the QT (ventricle of guinea pigs) was “n.s”. The “syst. blood pressure (change)” value (ventricle of guinea pigs) was −15.3 mm Hg and the ERP (ventricle of guinea pigs) was -8.2 ms.

In the case of `CCc1ccc(S(=O)(=O)N(CC(C)(C)C)C2c3cc(CC(=O)NCCc4ccccc4)ccc3OC(C)(C)C2O)cc1` (stereo not drawn) [Example 10], the FRP prolongation [1] is reported as 20 ms, the QRS (ventricle of guinea pigs) is reported as “n.s” and the QT (ventricle of guinea pigs) is reported as “n.s”. For the same compound, the “syst. blood pressure (change)” value (ventricle of guinea pigs) was −15.9 mm Hg and the ERP (ventricle of guinea pigs) was -8.0 ms.

`CCc1ccc(S(=O)(=O)N[C@@H]2c3cc(CC(=O)N[C@@H]4CCCc5ccccc54)ccc3OC(C)(C)[C@H]2O)cc1` [Example 2, 2-((3S,4R)-4-{[(4-ethylphenyl)sulfonyl]amino}-3-hydroxy-2,2-dimethyl-3,4-dihydro-2H-chromen-6-yl)-N-[(1R)-1,2,3,4-tetrahydronaphth-1-yl]acetamide] was tested, and the FRP prolongation [1] was 20 ms, the QRS (ventricle of guinea pigs) was “n.s” and the QT (ventricle of guinea pigs) was “n.s”. For the same compound, the “syst. blood pressure (change)” value (ventricle of guinea pigs) was “n.s” and the ERP (ventricle of guinea pigs) was “n.s”.

For `CC1(C)Oc2ccc(CC(=O)NC3CCCc4ccccc43)cc2C(NS(=O)(=O)c2cccc(F)c2)C1O` (mixture of isomers) [Example 13], the FRP prolongation [1] was 28 ms, the QRS (ventricle of guinea pigs) was “n.s” and the QT (ventricle of guinea pigs) was “n.s”. For the same compound, the “syst. blood pressure (change)” value (ventricle of guinea pigs) was “n.s” and the ERP (ventricle of guinea pigs) was “n.s”.

For `CCc1ccc(S(=O)(=O)N(CC(C)(C)C)C2c3cc(CC(=O)NCc4ccccc4)ccc3OC(C)(C)C2O)cc1` (stereo not drawn) [Example 4, N-benzyl-2-{4-[[(4-ethylphenyl)sulfonyl](neopentyl)amino]-3-hydroxy-2,2-dimethyl-3,4-dihydro-2H-chromen-6-yl}acetamide], the FRP prolongation [1] was 17 ms, the QRS (ventricle of guinea pigs) was “n.s” and the QT (ventricle of guinea pigs) was “n.s”. For the same compound, the “syst. blood pressure (change)” value (ventricle of guinea pigs) was “n.s” and the ERP (ventricle of guinea pigs) was “n.s”.
